Measurements: patent publication US6355799B1, “Substituted benzene compounds, process for their preparation, and herbicidal and defoliant compositions containing them” (ISK Americas Incorporated, priority 1997, dated 2002)

Legend:
Type in all cases: in vivo
[1] = tested on: upland rice (Oryza sp., var. Tebonnet, RICE); assay: Pre-emerge test, crop safety; details: rated 14 days after application, 0 = no damage, 100 = complete death
Procedure, shortened: (§1)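 Herbicidal damage is scored 0 (none) to 100 (complete plant death) two weeks after a simulated field spray. Rates span 15–1000 g ai/ha, delivered in acetone at 187 l/ha. For post-emergence treatments, plants have 2–3 leaves and the spray carries 0.25% v/v non-ionic surfactant.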

[2] = tested on: field corn (Zea mays L., var. Dekalb 535, CORN); assay: Pre-emerge test, crop safety; details: rated 14 days after application, 0 = no damage, 100 = complete death
Procedure, shortened: as §1

[3] = tested on: upland rice (Oryza sp., var. Tebonnet, RICE); assay: Post-emerge test, crop safety; details: post-emerge, 14 days after application, rating scale 0-100
Procedure, shortened: (§2)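 Visual ratings on a 0-100 scale (0 no damage, 100 all plants dead) were taken at 14 days after treatment. Rates of 15-1000 g ai/ha in acetone, 187 l/ha, were sprayed onto soil one day after planting (pre-emerge) or onto 2-3 leaf plants with 0.25% v/v surfactant (post-emerge).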

[4] = tested on: field corn (Zea mays L., var. Dekalb 535, CORN); assay: Post-emerge test, crop safety; details: post-emerge, 14 days after application, rating scale 0-100
Procedure, shortened: as §2

[5] = tested on: barnyardgrass (Echinochloa crus-galli, ECHCG); assay: Post-emerge test, greenhouse herbicide activity screening; details: post-emerge, 14 days after application, rating scale 0-100
Procedure, shortened: (§3)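 Compounds in acetone were track-sprayed at 15–1000 g ai/ha: pre-emergence onto soil sown the previous day, then top-watered to incorporate and later bottom-watered; post-emergence onto 2–3 leaf plants with 0.25% v/v surfactant, bottom-watered only. Ratings on a 0–100 phytotoxicity scale were taken at day 14.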

[6] = tested on: sicklepod (Cassia obtusifolia, CASOB); assay: as above; details: post-emerge, 14 days after application, rating scale 0-100
Procedure, shortened: as §3

[7] = tested on: velvetleaf (Abutilon theophrasti, ABUTH); assay: as above; details: post-emerge, 14 days after application, rating scale 0-100
Procedure, shortened: as §3

[8] = tested on: ivyleaf morningglory (Ipomoea hederacea, IPOHE); assay: as above; details: post-emerge, 14 days after application, rating scale 0-100
Procedure, shortened: as §3

[9] = tested on: lambsquarters (Chenopodium album, CHEAL); assay: as above; details: post-emerge, 63 g ai/ha, 14 days after application, rating scale 0-100
Procedure, shortened: as §3

[10] = tested on: redroot pigweed (Amaranthus retroflexus, AMARE); assay: as above; details: post-emerge, 14 days after application, rating scale 0-100
Procedure, shortened: as §3

[11] = tested on: green foxtail (Setaria viridis, SETVI); assay: as above; details: post-emerge, 14 days after application, rating scale 0-100
Procedure, shortened: as §3

[12] = tested on: johnsongrass (Sorghum halepense, SORHA); assay: as above; details: post-emerge, 14 days after application, rating scale 0-100
Procedure, shortened: as §3

[13] = tested on: large crabgrass (Digitaria sanguinalis, DIGSA); assay: as above; details: post-emerge, 14 days after application, rating scale 0-100
Procedure, shortened: as §3

[14] = tested on: redroot pigweed (Amaranthus retroflexus, AMARE); assay: Pre-emerge test, greenhouse herbicide activity screening; details: rated 14 days after application, 0 = no damage, 100 = complete death
Procedure, shortened: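 Compounds in acetone were track-sprayed at 15-1000 g ai/ha (187 l/ha) on sandy loam pots: pre-emerge one day after seeding, post-emerge at 2-3 leaf stage with 0.25% v/v non-ionic surfactant. Phytotoxicity was rated 14 days later on a 0 (no damage) to 100 (complete death) scale.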

[15] = tested on: barnyardgrass (Echinochloa crus-galli, ECHCG); assay: as above; details: rated 14 days after application, 0 = no damage, 100 = complete death
Procedure, shortened: as §2

[16] = tested on: sicklepod (Cassia obtusifolia, CASOB); assay: as above; details: rated 14 days after application, 0 = no damage, 100 = complete death
Procedure, shortened: as §2

[17] = tested on: velvetleaf (Abutilon theophrasti, ABUTH); assay: as above; details: rated 14 days after application, 0 = no damage, 100 = complete death
Procedure, shortened: as §2

[18] = tested on: ivyleaf morningglory (Ipomoea hederacea, IPOHE); assay: as above; details: rated 14 days after application, 0 = no damage, 100 = complete death
Procedure, shortened: as §2

[19] = tested on: lambsquarters (Chenopodium album, CHEAL); assay: as above; details: rated 14 days after application, 0 = no damage, 100 = complete death
Procedure, shortened: as §2

[20] = tested on: green foxtail (Setaria viridis, SETVI); assay: as above; details: rated 14 days after application, 0 = no damage, 100 = complete death
Procedure, shortened: as §2

[21] = tested on: johnsongrass (Sorghum halepense, SORHA); assay: as above; details: rated 14 days after application, 0 = no damage, 100 = complete death
Procedure, shortened: as §2

[22] = tested on: large crabgrass (Digitaria sanguinalis, DIGSA); assay: as above; details: rated 14 days after application, 0 = no damage, 100 = complete death
Procedure, shortened: as §2

COc1c(Cl)cc(F)c(-n2c(=S)cc(C(F)(F)F)n(C)c2=O)c1NC(=S)c1ccc(F)cc1F [2-46]
Pre-emerge phytotoxicity rating (0-100), crop damage, RICE ([1]; 63 g ai/ha): 20 | Pre-emerge phytotoxicity rating (0-100), crop damage, RICE ([1]; 250 g ai/ha): 70 | Pre-emerge phytotoxicity rating (0-100), crop damage, CORN ([2]; 63 g ai/ha): 0 | Pre-emerge phytotoxicity rating (0-100), crop damage, CORN ([2]; 250 g ai/ha): 90 | phytotoxicity rating RICE ([3]; 63 g ai/ha): 10 | phytotoxicity rating RICE ([3]; 250 g ai/ha): 30 | phytotoxicity rating CORN ([4]; 63 g ai/ha): 0 | phytotoxicity rating CORN ([4]; 250 g ai/ha): 20 | phytotoxicity rating ECHCG ([5]; 63 g ai/ha): 0 | phytotoxicity rating ECHCG ([5]; 250 g ai/ha): 10 | phytotoxicity rating CASOB ([6]; 63 g ai/ha): 0 | phytotoxicity rating CASOB ([6]; 250 g ai/ha): 0 | phytotoxicity rating ABUTH ([7]; 63 g ai/ha): 50 | phytotoxicity rating ABUTH ([7]; 250 g ai/ha): 100 | phytotoxicity rating IPOHE ([8]; 63 g ai/ha): 0 | phytotoxicity rating IPOHE ([8]; 250 g ai/ha): 20 | phytotoxicity rating CHEAL [9]: 10 | phytotoxicity rating AMARE ([10]; 63 g ai/ha): 30 | phytotoxicity rating AMARE ([10]; 250 g ai/ha): 70 | phytotoxicity rating SETVI ([11]; 63 g ai/ha): 0 | phytotoxicity rating SETVI ([11]; 250 g ai/ha): 30 | phytotoxicity rating SORHA ([12]; 63 g ai/ha): 0 | phytotoxicity rating SORHA ([12]; 250 g ai/ha): 0 | phytotoxicity rating DIGSA ([13]; 63 g ai/ha): 0 | phytotoxicity rating DIGSA ([13]; 250 g ai/ha): 0 | Pre-emerge Herbicidal Activity, phytotoxicity rating (0-100), AMARE ([14]; 63 g ai/ha): 100 | Pre-emerge Herbicidal Activity, phytotoxicity rating (0-100), AMARE ([14]; 250 g ai/ha): 100 | Pre-emerge Herbicidal Activity, phytotoxicity rating (0-100), ECHCG ([15]; 63 g ai/ha): 0 | Pre-emerge Herbicidal Activity, phytotoxicity rating (0-100), ECHCG ([15]; 250 g ai/ha): 50 | Pre-emerge Herbicidal Activity, phytotoxicity rating (0-100), CASOB ([16]; 63 g ai/ha): 30 | Pre-emerge Herbicidal Activity, phytotoxicity rating (0-100), CASOB ([16]; 250 g ai/ha): 100 | Pre-emerge Herbicidal Activity, phytotoxicity rating (0-100), ABUTH ([17]; 63 g ai/ha): 50 | Pre-emerge Herbicidal Activity, phytotoxicity rating (0-100), ABUTH ([17]; 250 g ai/ha): 100 | Pre-emerge Herbicidal Activity, phytotoxicity rating (0-100), IPOHE ([18]; 63 g ai/ha): 0 | Pre-emerge Herbicidal Activity, phytotoxicity rating (0-100), IPOHE ([18]; 250 g ai/ha): 60 | Pre-emerge Herbicidal Activity, phytotoxicity rating (0-100), CHEAL ([19]; 63 g ai/ha): 100 | Pre-emerge Herbicidal Activity, phytotoxicity rating (0-100), CHEAL ([19]; 250 g ai/ha): 100 | Pre-emerge Herbicidal Activity, phytotoxicity rating (0-100), SETVI ([20]; 63 g ai/ha): 90 | Pre-emerge Herbicidal Activity, phytotoxicity rating (0-100), SETVI ([20]; 250 g ai/ha): 100 | Pre-emerge Herbicidal Activity, phytotoxicity rating (0-100), SORHA ([21]; 63 g ai/ha): 30 | Pre-emerge Herbicidal Activity, phytotoxicity rating (0-100), SORHA ([21]; 250 g ai/ha): 90 | Pre-emerge Herbicidal Activity, phytotoxicity rating (0-100), DIGSA ([22]; 63 g ai/ha): 30 | Pre-emerge Herbicidal Activity, phytotoxicity rating (0-100), DIGSA ([22]; 250 g ai/ha): 70
